Experimental data published in patent US20100048479A1, “ADRENAL GRK2 ACTIVITY AS A THERAPEUTIC TARGET FOR HEART FAILURE” (priority 2006, published 2010).
Like-named read-outs stand apart in the source and are kept apart here.

Tests used:
[1] = test system: CSQ/Tg mouse-derived chromaffin cells; assay: In vitro catecholamine secretion from chromaffin cells of CSQ/Tg and NLC mice (nicotine stimulus, UK14304 pre-treatment); assay type: cell-based; conditions: for Inhibition of Epi and NE secretion in response to nicotine: 10 μM UK14304 pre-treatment; for EC50: Mus musculus, n=6
Excerpt: (§1) Experimental Procedures: Adrenal chromaffin cell isolation and culture: The animal models of heart failure: mice with myocardial-targeted overexpression of calsequestrin (CSQ/Tg mice); male Sprague-Dawley rats (450-500 g; Harlan) ten weeks post-cryo-myocardial infarction (cryo-MI) (HF rats); as well as CSQ/βARKct mice, were previously established and characterized. Harding et al., 98 P.N.A.S. USA, 5809-14 (2001); Most et al., 114 J. Clin. Invest. 1550-63 (2004). Nontransgenic littermate mice were used as healthy controls for the mouse heart failure model. Chromaffin cells were isolated from adrenal glands excised from these animals and cultured as described previously in Brede et al., 2003. […] Cells from separate isolations were used in each experiment.
(§2) Plasma and in vitro catecholamine secretion measurements: Plasma Epi and NE levels were determined by ELISA, performed on rat and mouse plasma samples with the BI-CAT EIA kit from ALPCO Diagnostics (Windham, N.H.). In vitro Epi and NE secretion in the supernatant of cultured chromaffin cells was measured by use of the same ELISA kit essentially as described previously by Wilson & Kirschner, 3J. Neurosci. 1971-78 (1983). In vitro catecholamine (CA) secretion measurements. Briefly, 48 hrs post-isolation, chromaffin cells were placed in a balanced salts buffer and stimulated with 20 μM nicotine for 30 min, following pre-treatment with 10 μM UK14304 (Sigma-Aldrich) or vehicle for 30 min. At the end of nicotine treatment, the supernatant was collected for determination of its CA content. Adenoviral-transfected cells were infected 48 hrs post-isolation and cells were subjected to the various treatments 24 hrs after transfection (72 hrs post-isolation). In all experiments, the supernatants used for CA measurements were collected from cultures of equal numbers of cells as determined by cell counting and post-experiment protein determination in harvested cells.

HF rat chromaffin cells = assay: In vitro catecholamine secretion from chromaffin cells of HF and sham rats (nicotine stimulus, UK14304 pre-treatment); assay type: cell-based; conditions: for EC50: Rattus norvegicus
Excerpt: as §1, §2

[2] = test system: chromaffin cells isolated from HF or sham-operated rats; conditions: 10 μM UK14304 pretreatment
Protocol: Calibration and assessment of intracellular Ca^2+ transients in chromaffin cells in response to K^+-induced depolarization were performed essentially as described. Brede, 2003; Zhou & Neher, 469 J. Physiol. 245-73 (1993). Changes in intracellular Ca^2+ were monitored fluorimetrically using the Ca^2+-sensitive probe Fura 2 (1 μM). The recording system included a Zeiss, Axiovert S170 inverted microscope fitted with epifluorescence (monochromator TILL Polychrome II, Germany). Cells were alternatively illuminated at 340 nm and 380 nm at a frequency of 140 Hz. Emission for each excitation wavelength was filtered at 510 nm and digitized using interface (EPC9, HEKA, Germany). […] Chromaffin cells isolated from HF or sham-operated rats were exposed to 10 μM UK14304 or vehicle for 30 min in culture medium containing a fixed Ca^2+ concentration of 2.5 mM, and then 150 mM KCl was added to induce depolarization. Only round-shaped, healthy, and attached chromaffin cells with a resting 340/380 ratio lower than 1 were selected for measurement.

[3] = test system: rat primary chromaffin cells; assay: βarr1 membrane recruitment in rat primary chromaffin cells; assay type: cell-based; conditions: cells infected with GFP, 10 μM UK14304 for 8 min
Protocol: β-arrestin membrane recruitment: βarr1 recruitment to rat primary chromaffin cell membranes or whole adrenal gland-derived plasma membranes was measured by western blotting in membrane preparations, essentially as described previously in Perry et al., 198 Science 834-36 (2002). Cultured chromaffin cells, isolated from rat adrenal glands, were transfected with the indicated recombinant adenoviruses and 24 hrs post-infection they were treated with vehicle or 10 μM UK14304 for 8 min. The cells were then harvested and plasma membranes prepared by hypotonic lysis with 5 mM TrisCl, 5 mM EDTA, pH 7.4, and subsequent ultracentrifugation at 47.000×g. The membranes were resuspended in RIPA buffer, containing Triton 0.5% and protease inhibitors, and then fractions of membrane lysates containing 50 μg of protein were loaded for SDS-PAGE, and subsequently western blotted with an antibody against rat βarr1 and −2 (A1CT40, a generous gift from Dr. R. J. Lefkowitz, Duke Univ. Medical Center, Durham, N.C.). Plasma membrane preparations from whole adrenal glands excised from in vivo infected rats were obtained by the same procedure. Blotting for actin in the same membrane lysates was also performed as loading control. βarr1 membrane recruitment was quantified as the densitometric ratio of βarr1 and actin bands detected in each sample.

chromaffin cells = test system: chromaffin cells
Protocol: as §2
Following this period, in vitro CA secretion assays were performed using nicotine to activate nicotinic cholinergic receptors (the physiological stimulus for CA secretion from these cells) and the α2AR agonist UK14304 to activate these negative feedback receptors.

α2AR [4] = conditions: HF animal models and human heart failure patients; cited from earlier work
α2AR [5] = assay: Moxonidine treatment of HF rats, plasma catecholamine levels; assay type: in vivo, rat; conditions: 7d of moxonidine 1 mg/kg/d intraperitoneally
Protocol: In vivo adrenal gene delivery: All animal procedures and experiments were performed in accordance with the guidelines of the Institutional Animal Care and Use Committee of Thomas Jefferson University. For adrenal-specific in vivo gene delivery in HF rats, adenovirus was delivered directly to the adrenal gland using a surgical technique. Rats with chronic heart failure ten weeks after myocardial infarction were directly injected with virus into both of their adrenal glands, immediately after a transversal cut of the median abdomen was made and ventral visceral organs temporarily placed on the side so as to expose the retroperitoneal region. […] HF rats were treated with either AdβARKct or AdGFP as a control. […] For moxonidine treatment of HF rats, systemic administration of 1.0 mg/kg/d of moxonidine (delivered via a daily intraperitoneal injection) was initiated at the time of in vivo adrenal gene delivery and continued for seven days, at which time plasma was taken for determination of circulating catecholamine levels (see below).
as §2, with “Adenoviral-transfected cells were infected 48 hrs post-isolation and cells were subjected to the various treatments 24 hrs after transfection (72 hrs post-isolation).” left out

α2AR [6] = conditions: MOXSE and MOXCON trials; cited from earlier work

With `Brc1c(NC2=NCCN2)ccc2nccnc12` [UK14304] the “Inhibition of Epi and NE secretion in response to nicotine” value ([1]; CSQ/Tg mouse-derived chromaffin cells) was “completely fails to inhibit”, the EC50 ([1]; CSQ/Tg mouse-derived chromaffin cells, AdGFP cells, mean±s.e.m., read-out: EC50 of UK14304-mediated inhibition of Epi secretion) was 5500 ± 1300 nM and the EC50 ([1]; CSQ/Tg mouse-derived chromaffin cells, AdGFP cells, read-out: EC50 of UK14304-mediated inhibition of NEpi secretion) was 8000 ± 2630 nM. For the same compound, the EC50 ([1]; CSQ/Tg mouse-derived chromaffin cells, AdβARKct cells, read-out: EC50 of UK14304-mediated inhibition of Epi secretion) was 200 ± 1.5 nM, the EC50 ([1]; CSQ/Tg mouse-derived chromaffin cells, AdβARKct cells, read-out: EC50 of UK14304-mediated inhibition of NEpi secretion) was 50 ± 1.4 nM and the “Inhibition of Epi and NE secretion in response to nicotine” value ([1]; control (NLC) cells) was “attenuates catecholamine release”. The “Catecholamine secretion, UK14304 pre-treatment alone” value ([1]; without nicotine) was “no effect”, the “Inhibition of secretion of both catecholamines in response to nicotine” value (HF rat chromaffin cells; 10 μM UK14304 pre-treatment) was “fails to inhibit secretion” and the EC50 (HF rat chromaffin cells; AdGFP cells, n=6, read-out: EC50 of UK14304-mediated inhibition of Epi secretion) was 6400 ± 2500 nM. The EC50 (HF rat chromaffin cells; AdGFP cells, n=6, read-out: EC50 of UK14304-mediated inhibition of NEpi secretion) was 680 ± 25.1 nM, the EC50 (HF rat chromaffin cells; AdβARKct cells, n=6, read-out: EC50 of UK14304-mediated inhibition of Epi secretion) was 100 ± 5.2 nM and the EC50 (HF rat chromaffin cells; AdβARKct cells, n=6, read-out: EC50 of UK14304-mediated inhibition of NEpi secretion) was 110 ± 1.2 nM. For the same compound, the “Depolarization-induced Ca2+ entry” value ([2]; HF chromaffin cells) was “fails to significantly alter”, the “Depolarization-induced Ca2+ entry” value ([2]; control (sham) cells) was “significantly inhibited” and the “βarr1 recruitment to chromaffin cell membranes in response to α2AR stimulation” value [3] was “large βarr1 recruitment”. For the same compound, the “Ability of UK14304 to inhibit CA secretion” value (chromaffin cells; cells from AdβARKct-treated rats, 10 μM UK14304) was “normal and similar to control cells”, the “Effect of UK14304 on CA secretion in response to nicotine” value (chromaffin cells; chromaffin cells from AdGRK2-treated rats, 10 μM UK14304) was “lost” and the “Effect of UK14304 on CA secretion in response to nicotine” value (chromaffin cells; chromaffin cells from control AdGFP-treated rats, 10 μM UK14304) was “abolishes CA secretion”.

For `Clc1cccc(Cl)c1N=C1NCCN1` [clonidine], the “Sympatholytic response to clonidine administration” value (α2AR [4]) is given as “diminished sympatholytic responses”.

In the case of `CN1CCCC1c1cccnc1` (stereo not shown) [nicotine], the “Nicotine-stimulated Epi and NE secretion” value (chromaffin cells; chromaffin cells from AdGFP-, AdGRK2- and AdβARKct-treated rats, 20 μM nicotine) is reported as “to an equal extent”.

In the case of `COc1nc(C)nc(Cl)c1N=C1NCCN1` [moxonidine], the “Circulating Epi levels” value (α2AR [5]; adrenal AdGFP-treated HF rats) is reported as “virtually no effect”, the “Circulating NEpi levels” value (α2AR [5]; adrenal AdGFP-treated HF rats) is reported as “lowered” and the “NE and Epi plasma levels” value (α2AR [5]; adrenal AdβARKct-treated HF rats) is reported as “further significantly reduced”. The “Reason for early termination of the trials” value (α2AR [6]) was “excessive adverse effects and fatalities” and the “SNS activity in heart failure patients” value (α2AR [6]) was “significant reduction of SNS activity”.
